We go through one molecule from article PMC7947795, “Rapamycin-Loaded Lipid Nanocapsules Induce Selective Inhibition of the mTORC1-Signaling Pathway in Glioblastoma Cells” (Frontiers in Bioengineering and Biotechnology, 2021).

Data set [1] in a line: Rapamycin solubility assay in oils (RP-HPLC). It is filed as physicochemical. The protocol:
[…] […] The mixture of 90% acetonitrile and 10% water (v/v) was used as a mobile phase, and delivered at a flow rate of 2.0 mL/min. The injection volume was 10 μL and the retention time was about 2.3 min.

The test system of data set [2] is U87MG cells. Kind of data set: Clonogenic assay by crystal violet coloration. In kind it is cell-based, Human. Conditions: 1 μM. The protocol: Irradiation was performed with the CP-160 cabinet x-ray system (Faxitron, Edimex, Le Plessis Grammoire, Angers, France) which delivers a dose of 1,5 grays by min. […] Irradiation was performed with cells covered.
Once the cells incubated in the exponential growth phase, serum-contained medium was removed and replaced by serum-deprived DMEM supplemented with 1 % N1 supplement. […] 8Gy radiation was performed 6 h after the treatment by Faxitron CP-160.

Data set [3] has as its system HIF-1α protein expression. The data set can be described thus: Western blot HIF-1α. It is filed as cell-based, Human. To be noted: U87MG, 1 μM, 21 and 0.4% O2, 0Gy. The protocol:
(§1) U87MG cells (2.4 × 10^5 cells/mL) harvested in the exponential growth phase were seeded in dishes in DMEM medium with 10% FBS, at 37°C in humidified atmosphere containing 5% CO2 and 21 or 0.4% O2. Once the cells incubated in the exponential growth phase, serum-contained medium was removed and replaced by serum-deprived DMEM supplemented with 1% N1 supplement. […] 8Gy radiation was performed 6 h after the treatment by Faxitron CP-160 (cf. section Irradiation Procedure).
(§2) Cells were scrapped and lysed by sonication for 10 s.
(§3) Equal amounts of protein from each sample, estimated by the Bio-Rad Protein Assay (Richmond, CA), were separated by electrophoresis through a 4–20% SDS-polyacrylamide gel (Mini-protean® TGX™ Ge, BioRad), transferred to PVDF membranes (AmershamHybond, GE Healthcare, Buckinghamshire, UK) and blocked with 4% non-fat dry milk in 1X TBS plus 0.1% Tween 20 at RT for 1 h. The membranes were washed and incubated with a primary antibody diluted in 2% BSA in 1X TBS plus 0.1% Tween 20 overnight at 4°C. The membranes were then washed and incubated again for 1 h at RT with peroxidase-conjugated anti-rabbit or anti-mouse secondary antibody. The bound antibody was detected using the enhanced chemiluminescence reagent kit SuperSignal West Femto (Thermo Scientific, Waltham, MA, USA) and read with a bioluminescence detector Image Quant Las 4000 (GE Healthcare, USA).
For orientation: In western blotting, separated proteins are transferred to a membrane and probed.

For data set [4] the following is noted: no reference given; cited from earlier work.
Data set [5] concerns 9L cells (rat glioma cells). Details: method as in Tyler et al., 2011. Conditions: in vitro, ref Tyler et al., 2011; cited from earlier work.
For data set [6], the system named is phosphorylation of Akt on Ser473. Kind of data set: Western blot Akt-p. It is filed as cell-based, Human. To be noted: U87MG, 1 μM, 21 and 0.4% O2, 0Gy. The protocol:
as §1, §2, §3

Data set [7] has as its system U87MG cells. The data set can be described thus: MTS cytotoxicity assay. In kind it is cell-based. To be noted: Homo sapiens, U-87 MG, serum-free medium, 4 h treatment, read at 48 h. The protocol:
Two assays were performed to determine the cytotoxicity effect of LNC-rapa on the glioblastoma cell line U87MG:MTS (3-(4,5-dimethylthiazol-2-yl)-5-(3-carboxymethoxyphenyl)-2-(4-sulfophenyl)-2H-tetrazolium) (Promega, Charbonnières, France) and clonogenic assay by crystal violet coloration (Sigma-Aldrich).
For the MTS assay, U87MG cells (5 × 10^4 cells/mL) harvested in the exponential growth phase were seeded in a 24-well plate in DMEM medium with 10% FBS, in humidified atmosphere (5% CO2) at 37°C. Once the cells incubated in the exponential growth phase, serum-contained medium was removed and replaced by serum-deprived DMEM supplemented with 1% N1 supplement (Sigma-Aldrich). […] 8Gy radiation was performed 6 h after the onset of initial treatment by Faxitron CP-160 (Faxitron X-rays, Lincolnshire, UK). Medium was changed every day. Forty-eight hours following the treatment, MTS reagent was diluted (1:5) in U87MG cell medium and incubated for 2 h at 37°C. The absorbance was measured at 492 nm using Multiskan® microplate spectrophotometer (Thermo Scientific).
Depending on the condition considered, the cells were placed throughout the experiment in a conventional 21% O2 incubator at 37°C/5% CO2 (normoxia) or 0.4% O2 (hypoxia) at 37°C/5% CO2 in an InVivO2 400 SCI-tive hypoxia workstation (Ruskinn); they are only placed in isolated flasks for the duration of the irradiations.

The nature of data set [8]: Spectral analysis of rapamycin stability in Labrafac. In kind it is physicochemical. Conditions: short cycles of heating and cooling at 70°C. From the text: Spectral analysis was then made by use of the CLARIOstar microplate reader (BMG Labtech, Champigny-sur-Marne, France).
The test system of data set [9] is mTOR phosphorylation (Ser2448). Kind of data set: Western blot p-mTOR/HSC70. In kind it is cell-based, Human. Conditions: U87MG, 1 μM, serum-free medium, 21 and 0.4% O2, 16 h.

As usually defined, the logP is the decadic logarithm of the partition coefficient of the neutral form, usually between octanol and water. Broadly, the IC50 is the concentration that inhibits the measured activity by half. Read a high IC50 as lower potency. With `CO[C@H]1C[C@@H]2CC[C@@H](C)[C@@](O)(O2)C(=O)C(=O)N2CCCC[C@H]2C(=O)O[C@H]([C@H](C)C[C@@H]2CC[C@@H](O)[C@H](OC)C2)CC(=O)[C@H](C)/C=C(\C)[C@@H](O)[C@@H](OC)C(=O)[C@H](C)C[C@H](C)/C=C/C=C/C=C/1C` [Rapamycin], in [1] (90°C, 3 h, whatever the oil used), the “Degradation at 90°C in oil” value is recorded as “completely degraded”. Also, the Dissolution rate in data set [1] (Captex 8000, 90°C) is recorded as 0%; in data set [1] (Captex 8000, RT), 9.5%; in [1] (Labrafac, 90°C), 0%; in [1] (Labrafac, RT) it was 6.3%; in [1] (Miglyol 812, 90°C), 0%; in data set [1] (Miglyol 812, RT), 7.3%. For the same molecule, the Dissolved rapamycin worked out at 0 mg/mL in [1] (Captex 8000, 90°C, initial 16.8 mg/mL); 1.8 mg/mL in data set [1] (Captex 8000, RT, initial 19.0 mg/mL); 0 mg/mL in data set [1] (Labrafac, 90°C, initial 21.1 mg/mL); 1.5 mg/mL in data set [1] (Labrafac, RT, initial 24.0 mg/mL); 0 mg/mL in [1] (Miglyol 812, 90°C, initial 17.1 mg/mL); 1.4 mg/mL in [1] (Miglyol 812, RT, initial 19.2 mg/mL). The “Synergistic effect with radiation treatment (clonogenic assay)” value in [2] (8Gy 6 h after treatment, 21 or 0.4% O2) is “do not exert any synergistic effect”. Also, the “Effect on cell survival (clonogenic assay)” value in data set [2] (21 or 0.4% O2, 10 days, significant at 0.4% O2) is on record as “only moderate effects”. Further, the HIF-1α protein expression result in data set [3] is “reduced”. Besides, the logP in data set [4] is 4.3. The “concentration causing growth inhibition” value in [5] was 0.01 µg/mL. For the same molecule, in data set [6], the “Akt-p protein level (Ser473)” value is on record as “enhance Akt-p protein level”. For the same molecule, the IC50 in [7] (0.4% pO2 (hypoxia)) came out at 34.6 µM; in data set [7] (21% pO2 (normoxia)) it was 20.5 µM. The “Stability of rapamycin in Labrafac” value in data set [8] is “confirmed”. The “Inhibition of mTOR phosphorylation (Ser2448)” value in data set [9] is given as “strong inhibition of mTOR phosphorylation”.
